This is an account of results in ChEMBL document CHEMBL4393653, “Applications of Deuterium in Medicinal Chemistry” (J Med Chem, 2019).

The nature of data set [1]: Half life in human liver microsomes. The format is ADME, Microsome.
Data set [2] can be described thus: Cmax in rat at 10 mg/kg, po. Conditions: in vivo. The data set is classed as ADME, organism-based. Set-up: dose 10 mg/kg, route oral.
The nature of data set [3]: Half life in rat at 10 mg/kg, po. Conditions: in vivo. The format is ADME, organism-based.

In data set [1], `[2H]C([2H])([2H])c1nnc(C(C)C)n1[C@@H]1C[C@H]2CC[C@@H](C1)N2C([2H])([2H])C[C@H](NC(=O)C1CCC(F)(F)CC1)c1ccccc1` gave a half-life of 146 min.

As to `[2H]C([2H])([2H])c1nnc(C(C)C)n1[C@@H]1C[C@H]2CC[C@@H](C1)N2CC[C@H](NC(=O)C1CCC(F)(F)CC1)c1ccccc1`, the half-life in data set [1] worked out at 45.5 min.

Consider `Cc1nnc(C(C)C)n1[C@@H]1C[C@H]2CC[C@@H](C1)N2CC[C@H](NC(=O)C1CCC(F)(F)CC1)c1ccccc1` [MARAVIROC], for which the half-life in data set [1] came out at 97.2 min.

In turn, `[2H]c1c([2H])c([2H])c(C2=C(c3ccc(S(C)(=O)=O)cc3)COC2=O)c([2H])c1[2H]` came in with a Cmax in data set [2] of 4180 ng/mL. In addition, in data set [3], the half-life is 257 min.

As to `CS(=O)(=O)c1ccc(C2=C(c3ccccc3)C(=O)OC2)cc1` [ROFECOXIB], in data set [2], the Cmax is 2420 ng/mL. The molecule also had a half-life in data set [3] of 251 min.
